What is called IC50 is the midpoint of a concentration-inhibition curve. A lower IC50 goes with greater potency.

The results in this text go back to patent publication US9896418B2, “Aryl ethers and uses thereof” (Peloton Therapeutics, Inc., priority 2013, dated 2018).

For the test, the system named is HIF-2α HIS TAG-PASB Domain. The test is described as follows: HIF-2α Scintillation Proximity Assay (SPA). Type of test: binding. The method, then: The percent inhibition was determined and IC50 values were calculated using the Dotmatics system based on the following equation: % inhibition=[(high control−sample)/(high control−low control)]×100.

Each structure is given as a SMILES string.

For `N#Cc1cc(F)cc(Oc2ccc(S(=O)(=O)C(F)(F)F)c3c2CC(F)C3N)c1` (stereo not shown) [Compound 268, 3-((1-amino-2-fluoro-7-((trifluoromethyl)sulfonyl)-2,3-dihydro-1H-inden-4-yl)oxy)-5-fluorobenzonitrile], 3500 nM corresponded to half-maximal inhibition (IC50). On to `N#Cc1c(S(=O)(=O)C(F)(F)F)ccc(Oc2cc(F)cc(Cl)c2)c1Br` [Compound 98, 2-Bromo-3-(3-chloro-5-fluorophenoxy)-6-((trifluoromethyl)sulfonyl)benzonitrile], for which the IC50 was found to be 15 nM. To `CNCc1c(S(=O)(=O)C(F)(F)F)ccc(Oc2cc(F)cc(Cl)c2)c1Br` [Compound 109, 1-(2-Bromo-3-(3-chloro-5-fluorophenoxy)-6-((trifluoromethyl)sulfonyl)phenyl)-N-methylmethanamine] belongs 2100 nM; to `Cc1c(Oc2cc(F)cc(C#N)c2)ccc(S(=O)(=O)C(F)(F)F)c1/C=C/C(=O)NCc1ccccc1` [Compound 149, (E)-N-Benzyl-3-(3-(3-cyano-5-fluorophenoxy)-2-methyl-6-((trifluoromethyl)sulfonyl)phenyl)acrylamide], 5700 nM.

On to `CS(=O)(=NC#N)c1ccc(Oc2cncc(C#N)c2)c2c1[C@H](O)C(F)(F)[C@@H]2F` (single isomer, unassigned) [Compound 321], for which the IC50 came out at 32 nM. Turning to `O=C1c2c(S(=O)(=O)C(F)F)ccc(Oc3cncc(Cl)c3)c2CC1(F)F` [Compound 182, 4-((5-Chloropyridin-3-yl)oxy)-7-((difluoromethyl)sulfonyl)-2,2-difluoro-2,3-dihydro-1H-inden-1-one], the IC50 stood at 380 nM.

In turn, `NC1CCc2c(Oc3cc(F)cc(F)c3)ccc(S(=O)(=O)C(F)F)c21` (stereo not shown) [Compound 19, 7-((difluoromethyl)sulfonyl)-4-(3,5-difluorophenoxy)-2,3-dihydro-1H-inden-1-amine] had an IC50 of 38000 nM. To `N#Cc1cc(F)cc(Oc2ccc(S(=N)(=O)C(F)(F)F)cc2C#N)c1` (stereo not shown) [Compound 73, 2-(3-cyano-5-fluorophenoxy)-5-((trifluoromethyl)sulfonimidoyl)benzonitrile] belongs 1400 nM; to `COC(=O)c1cc(S(=O)(=O)C(F)(F)F)ccc1Oc1cc(F)cc(Cl)c1` [Compound 121, Methyl 2-(3-chloro-5-fluorophenoxy)-5-((trifluoromethyl)sulfonyl)benzoate], 16000 nM; to `CS(=O)(=NC#N)c1ccc(Oc2cncc(C#N)c2)c2c1[C@H](O)C(F)(F)[C@@H]2F` (single isomer, unassigned) [Compound 319], 14 nM. In the case of `O=S(=O)(c1ccc(Oc2cc(F)cc(F)c2)c2c1C(CO)CC2)C(F)F` (stereo not shown) [Compound 24, (7-((Difluoromethyl)sulfonyl)-4-(3,5-difluorophenoxy)-2,3-dihydro-1H-inden-1-yl)methanol], the IC50 is 920 nM. Molecule `CS(=O)(=O)c1ccc(Oc2ccc(F)c(C#N)c2)c2c1[C@H](O)C(F)(F)[C@@H]2F` [Compound 327, 2-Fluoro-5-(((1S,3R)-2,2,3-trifluoro-1-hydroxy-7-(methylsulfonyl)-2,3-dihydro-1H-inden-4-yl)oxy)benzonitrile] displayed an IC50 of 28 nM. As to `O=S(=O)(c1ccc(Oc2cncc(Cl)c2)c2c1[C@H](O)C(F)(F)C2)C(F)(F)F` [Example 186, (S)-4-((5-Chloropyridin-3-yl)oxy)-2,2-difluoro-7-((trifluoromethyl)sulfonyl)-2,3-dihydro-1H-inden-1-ol], the IC50 was < 5 nM. Molecule `N#Cc1ccc(Oc2cc(F)cc(F)c2)c2c1[C@H](O)CC2` [Compound 66, (R)-7-(3,5-Difluorophenoxy)-3-hydroxy-2,3-dihydro-1H-indene-4-carbonitrile] had an IC50 of 5000 nM. On to `N#Cc1cc(F)cc(Oc2ccc(S(=O)(=O)C3CCC3)c3c2CCC3O)c1` (stereo not shown) [Compound 208, 3-((7-(Cyclobutylsulfonyl)-1-hydroxy-2,3-dihydro-1H-inden-4-yl)oxy)-5-fluorobenzonitrile], for which the IC50 was > 100000 nM. Regarding `Cc1c(Oc2cc(F)cc(Cl)c2)ccc(S(=O)(=O)C(F)(F)F)c1Br` [Compound 140, 3-Bromo-1-(3-chloro-5-fluoro-phenoxy)-2-methyl-4-(trifluoromethylsulfonyl)benzene], the IC50 is 29 nM. Next, `CS(=N)(=O)c1ccc(Oc2cc(F)cc(F)c2)c2c1[C@H](O)C(F)(F)C2` (stereo partly drawn) [Example 192, ((S)-7-(3,5-Difluorophenoxy)-2,2-difluoro-3-hydroxy-2,3-dihydro-1H-inden-4-yl)(imino)(methyl)-λ^6-sulfanone]: 180 nM. `O=S(=O)(c1ccc(Oc2cc(F)cc(F)c2)c2c1CCC2)C(F)F` [Compound 20, 4-((Difluoromethyl)sulfonyl)-7-(3,5-difluorophenoxy)-2,3-dihydro-1H-indene] had an IC50 of 1100 nM. As to `N#Cc1cc(Oc2ccc(S(=O)(=O)C(F)(F)F)c3c2CC(F)(F)[C@H]3O)ccc1F` [Example 228, (S)-5-((2,2-Difluoro-1-hydroxy-7-((trifluoromethyl)sulfonyl)-2,3-dihydro-1H-inden-4-yl)oxy)-2-fluorobenzonitrile], half-maximal inhibition (IC50) was put at 40 nM.

In turn, `Cc1c(S(=O)(=O)C(F)F)ccc(Oc2cc(F)cc(C#N)c2)c1C#N` [Compound 33, 6-(3-Cyano-5-fluorophenoxy)-3-((difluoromethyl)sulfonyl)-2-methylbenzonitrile] displayed an IC50 of 157 nM. `N=S(=O)(c1ccc(Oc2cc(F)cc(Cl)c2)c(Br)c1)C(F)F` (stereo not shown) [Compound 69, 2-bromo-1-(3-chloro-5-fluorophenoxy)-4-((difluoromethyl)sulfonimidoyl)benzene] registered an IC50 of 1300 nM.

Turning to `CNCc1c(S(=O)(=O)C(F)(F)F)ccc(Oc2cc(F)cc(Cl)c2)c1Cl` [Compound 113, 1-(2-Chloro-3-(3-chloro-5-fluorophenoxy)-6-((trifluoromethyl)sulfonyl)phenyl)-N-methylmethanamine], the midpoint of inhibition, the IC50, lay at 2300 nM. Molecule `Fc1cc(Cl)cc(Oc2ccc(C(F)(F)F)c(Cl)c2Br)c1` [Compound 97, 2-Bromo-3-chloro-1-(3-chloro-5-fluorophenoxy)-4-(trifluoromethyl)benzene] returned an IC50 of 2200 nM.

As to `CS(=O)(=NC#N)c1ccc(Oc2cc(F)cc(C#N)c2)c2c1[C@H](O)C(F)(F)[C@H]2F` (stereo partly drawn) [Compound 318, [[(1S,3S)-7-(3-cyano-5-fluoro-phenoxy)-1,2,2-trifluoro-3-hydroxy-indan-4-yl]-methyl-oxo-λ^6-sulfanylidene]cyanamide], the midpoint of inhibition, the IC50, lay at 2380 nM. Regarding `N#CN=S(=O)(CF)c1ccc(Oc2cc(F)cc(C#N)c2)c2c1[C@H](O)CC2` (stereo partly drawn) [Compound 283, N—(((R)-7-(3-cyano-5-fluorophenoxy)-3-hydroxy-2,3-dihydro-1H-inden-4-yl)(fluoromethyl)(oxo)-λ^6-sulfanylidene)cyanamide], half-maximal inhibition (IC50) was put at 1400 nM. To `N#Cc1c(S(=O)(=O)C(F)F)ccc(Oc2cc(F)cc(Cl)c2)c1Br` [Compound 76, 2-bromo-3-(3-chloro-5-fluorophenoxy)-6-((difluoromethyl)sulfonyl)benzonitrile] belongs 880 nM; to `CS(=O)(=O)c1ccc(Oc2cncc(C#N)c2)c2c1[C@H](O)[C@H](F)[C@@H]2F` [Compound 333, 5-(((1S,2S,3R)-2,3-difluoro-1-hydroxy-7-(methylsulfonyl)-2,3-dihydro-1H-inden-4-yl)oxy)nicotinonitrile], 74 nM. Next, `CS(=N)(=O)c1ccc(Oc2cc(F)cc(F)c2)c2c1C(O)CC2` (stereo not shown) [Compound 190, (7-(3,5-Difluorophenoxy)-3-hydroxy-2,3-dihydro-1H-inden-4-yl)(imino)(methyl)-λ^6-sulfanone]: 580 nM; `CN=S(=O)(c1ccc(Oc2cc(F)cc(Cl)c2)c(Br)c1)C(F)F` (stereo not drawn) [Compound 70, N-methyl-2-bromo-1-(3-chloro-5-fluorophenoxy)-4-(S-(difluoromethyl)sulfonimidoyl)benzene]: 770 nM.

`N#Cc1cncc(Oc2ccc(S(=N)(=O)C(F)(F)F)c3c2CC(F)(F)[C@H]3O)c1` (stereo partly drawn) [Example 314, 5-(((1S)-2,2-difluoro-1-hydroxy-7-(S-(trifluoromethyl)sulfonimidoyl)-2,3-dihydro-1H-inden-4-yl)oxy)nicotinonitrile] gave an IC50 of 25 nM. In turn, `N#Cc1cncc(Oc2ccc(S(N)(=O)=O)c3c2CC(F)(F)[C@H]3O)c1` [Compound 253, (S)-7-((5-Cyanopyridin-3-yl)oxy)-2,2-difluoro-3-hydroxy-2,3-dihydro-1H-indene-4-sulfonamide] yielded an IC50 of 18000 nM. For `CS(=O)(=O)c1ccc(Oc2cncc(Br)c2)c2c1[C@H](O)[C@H](F)C2` [Compound 326, (1S,2R)-4-((5-Bromopyridin-3-yl)oxy)-2-fluoro-7-(methylsulfonyl)-2,3-dihydro-1H-inden-1-ol], the IC50 stood at 1280 nM. `N#Cc1cc(F)cc(Oc2ccc(S(=O)(=O)C(F)(F)F)c(C#N)c2Br)c1` [Compound 100, 2-Bromo-3-(3-cyano-5-fluorophenoxy)-6-((trifluoromethyl)sulfonyl)benzonitrile] displayed an IC50 of 94 nM. `CS(=O)(=O)c1ccc(Oc2cc(F)cc(C#N)c2)c2c1[C@H](O)[C@H](F)[C@@H]2O` [Compound 296, 3-fluoro-5-[(1S,2R,3R)-2-fluoro-1,3-dihydroxy-7-methylsulfonyl-indan-4-yl]oxy-benzonitrile]: the midpoint of inhibition, the IC50, lay at 1300 nM.

As to `CS(=O)(=NC#N)c1ccc(Oc2cc(F)cc(C#N)c2)c2c1C(O)CC2` (stereo not shown) [Compound 68], the IC50 was 3100 nM. To `CS(=O)(=O)c1ccc(Oc2cncc(Br)c2)c2c1[C@H](O)[C@H](F)[C@@H]2F` [Compound 328, (1S,2S,3R)-4-((5-Bromopyridin-3-yl)oxy)-2,3-difluoro-7-(methylsulfonyl)-2,3-dihydro-1H-inden-1-ol] belongs 32 nM; to `O=S(=O)(c1ccc(Oc2cc(F)cc(Cl)c2)c(Cl)c1CNC1CCOCC1)C(F)F` [Compound 48, N-(2-Chloro-3-(3-chloro-5-fluorophenoxy)-6-((difluoromethyl)sulfonyl)benzyl)tetrahydro-2H-pyran-4-amine], 920 nM.
